According to patent publication US8637664B2, “Alkyl 4- [4- (5-oxo-2,3,5, 11a-tetrahydo-5H-pyrrolo [2, 1-c] [1,4] benzodiazepine-8-yloxy)-butyrylamino]-1H-pyrrole-2-carboxylate derivatives and related compounds for the treatment of a proliferative disease” (Spirogen SARL, priority 2005, dated 2014):
Like-named read-outs stand apart in the source and are kept apart here. Marks after values point to notes of the source that are not given here.

How the values were obtained:
calf thymus DNA (CT-DNA) = experiment: DNA thermal denaturation (melting) studies; type: binding; conditions: CT-DNA 100 μM DNAp, compound 20 μM, 37 °C; for Induced ΔTm after incubation 0 hours: pH 7.00, 0 hours; for Induced ΔTm after incubation 4 hours: pH 7.00, 4 hours; for Induced ΔTm after incubation 18 hours: pH 7.00, 18 hours
Procedure: The PBD agents were subjected to DNA thermal melting (denaturation) studies (Gregson, S. J., et al., Journal of Medicinal Chemistry, 44(5), 737-748 (2001); Jones, G. B., et al., Anti-Cancer Drug Design, 5(3), 249-264 (1990); McConnaughie, A. W. and; Jenkins, T. C. Journal of Medicinal Chemistry, 38(18), 3488-3501 (1995)) using calf thymus DNA (CT-DNA, type-1, highly polymerized sodium salt; 42% G+C [Sigma]) at a fixed 100 μM (DNAp=50 μM bp) concentration, determined using an extinction coefficient of 6600 (M phosphate)^−1 cm^−1 at 260 nm (Manzini, G., et al., Nucleic Acids Research, 11(24), 8861-8876 (1983)). Solutions were prepared in pH 7.00±0.01 aqueous buffer containing 10 mM NaH2PO4/Na2HPO4 and 1 mM EDTA. Working solutions containing CT-DNA and the test compound (20 μM) were incubated at 37.0±0.1° C. for 0 to 18 hours using an external water bath. Samples were monitored at 260 nm using a Varian-Cary 400 Bio spectrophotometer fitted with a Peltier heating accessory. Heating was applied at a rate of 1° C./min in the 45 to 98° C. temperature range, with optical and temperature data sampling at 200 ms intervals. A separate experiment was carried out using buffer alone, and this baseline was subtracted from each DNA melting curve before data treatment. Optical data were imported into the Origin 5 program (MicroCal Inc., Northampton, Mass.) for analysis. DNA helix→coil transition temperatures (Tm) were determined at the midpoint of the normalized melting profiles using a published analytical procedure (Jones, G. B., et al., Anti-Cancer Drug Design, 5(3), 249-264 (1990)). Results are given in table 1 as the mean±standard deviation from at least three determinations. Ligand-induced alterations in DNA melting behaviour (ΔTm) are given by ΔTm=Tm(DNA+ligand)−Tm(DNA), where the Tm value determined for free CT-DNA is 67.82±0.06° C. (averaged from >90 runs). All PBD compounds were dissolved in HPLC-grade MeOH to give working solutions containing ≦0.6% v/v MeOH; Tm results were corrected for the effects of MeOH co-solvent by using a linear correction term.
The above method was also carried out on the compounds of example 2, with all compounds being incubated for up to 72 hours.

[1] = system: K562 human chronic myeloid leukaemia cells; experiment: In vitro cytotoxicity, MTT assay; type: cell-based; conditions: K562, 1 hour drug exposure, MTT after 4 days
Procedure: K562 human chronic myeloid leukaemia cells were maintained in RPM1 1640 medium supplemented with 10% fetal calf serum and 2 mM glutamine at 37° C. in a humidified atmosphere containing 5% CO2 and were incubated with a specified dose of drug for 1 hour at 37° C. in the dark. The incubation was terminated by centrifugation (5 min, 300 g) and the cells were washed once with drug-free medium. Following the appropriate drug treatment, the cells were transferred to 96-well microtiter plates (10^4 cells per well, 8 wells per sample). Plates were then kept in the dark at 37° C. in a humidified atmosphere containing 5% CO2. The assay is based on the ability of viable cells to reduce a yellow soluble tetrazolium salt, 3-(4,5-dimethylthiazol-2-yl)-2,5-diphenyl-2H-tetrazolium bromide (MTT, Aldrich-Sigma), to an insoluble purple formazan precipitate. Following incubation of the plates for 4 days (to allow control cells to increase in number by approximately 10 fold), 20 μL of MTT solution (5 mg/mL in phosphate-buffered saline) was added to each well and the plates further incubated for 5 hours. The plates were then centrifuged for 5 minutes at 300 g and the bulk of the medium pipetted from the cell pellet leaving 10-20 μL per well. DMSO (200 μL) was added to each well and the samples agitated to ensure complete mixing. The optical density was then read at a wavelength of 550 nm on a Titertek Multiscan ELISA plate reader, and a dose-response curve was constructed.

[2] = target: 262 bp DNA fragment (MS2F or MS2R) of MS2 plasmid; experiment: DNase I footprinting on MS2 DNA fragment; type: binding
Procedure: The sequence selectivity of the six PBD-pyrrole conjugates (21, 23, 25, 27, 29) was evaluated by standard DNA footprinting on a fragment of MS2 as follows, in accordance with the technique described in Martin, C., et al., (Martin, C., et al., Biochemistry, 44(11), 4135-4147 (2005))
Forward (5′-[…]-3′) or reverse (5′-[…]-3′) primer was 5′-end labelled with ^32P by T4 polynucleotide kinase. Labelling mixture contained primer (5 pmol; Sigma-Genosys), 10× kinase buffer (1 μl; Promega), (γ-^32P)-ATP (2μ of 10 μCi/μl, 6000 Ci/mmol; Perkin Elmer Life Sciences), and T4 polynucleotide kinase (10 U; Promega) in a 10 μl final volume. Labelling mix was incubated at 37° C. for 30 minutes followed by inactivation of the kinase at 70° C. for 10 minutes. A 262 bp DNA fragment (MS2F or MS2R) was amplified from the MS2 plasmid using PCR with either labelled forward or reverse primer and the unlabelled primer as required. Reactions were comprised of labelled primer mix (10 μl), 10×PCR buffer (5 μl; Sigma), dNTPs (5 μl; 2.5 mM each of A, C, G and T, Amersham Pharmacia), unlabelled primer as required ([…]), MS2 plasmid template DNA (10 ng) and Taq DNA polymerase (5 U; Sigma) in a 50 μl final volume. Radiolabelled 262-mer was purified by non-denaturing polyacrylamide gel electrophoresis, elution, filtration and EtOH precipitation and was resuspended in a solution of Tris-HCl (10 mM) pH 7.4/NaCl (10 mM) to yield an activity of 200 counts per second per 5 μl when held up, in a pipette tip, to a capped Morgan series 900 mini-monitor.
For DNase I footprinting radiolabelled 262-mer (2 μl) was incubated overnight (16-18 h) with drug solution (388 μl) or in an aqueous buffer [HEPES (20 mM) pH 7.9, NaCl (50 mM), MgCl2 (1 mM), DTT (5 mM), 10% glycerol] in control reactions. Enzymatic cleavage was initiated by addition of DNase I solution (10 μl of 0.05 U/ml; Sigma) in aqueous NaCl (200 mM), MgCl2 (20 mM) and MnCl2 (20 mM) and halted with stop solution [40 μl of NaCl (2.25 M), EDTA (150 mM) pH 8.0, 0.57 μg/μl glycogen (0.57 μg/μl; Roche), poly(dl-dC).poly(dl-dC) DNA (19.3 ng/μl; Amersham Pharmacia)]. From this mixture, digested DNA fragments were prepared for electrophoresis following the protocol of Trauger & Dervan, and were loaded on to a preheated 8% denaturing polyacrylamide gel. Electrophoresis in 1×TBE buffer was allowed to proceed for 100 min at 70 W (1600-2000 V). The gel was the fixed in acetic acid (10% v/v) and methanol (10% v/v) for 15 minutes followed by being blotted onto Whatman 3 mM paper and vacuum-dried at 80° C. for 45 minutes.
Dried gels were stored at room temperature in phosphor storage screens (Molecular Dynamics) for a minimum period of 12 h. Data were collected from exposed screens using a Molecular Dynamics 425E Phosphorlmager and transferred to ImageQuant v1.2 software (Molecular Dynamics) for analysis. Data were expressed as the differential cleavage between control and sample lanes. Peaks were integrated and differential cleavage calculated as ln(fd)−ln(fc); (fd is the fractional cleavage at any particular bond in the presence of drug and fc is the fractional cleavage of the same bond in the control). Maxam-Gilbert G+A marker lanes were prepared in the usual fashion.
The vast majority of footprint sites are common features in the binding profiles of all six conjugates, with only a small number of sites being footprinted by a subset of the family. Even more unexpectedly, no site is footprinted by only one molecule (in fact, the fewest number of conjugates that bind at any single site is four). The differential cleavage plot provides footprinting profiles at a supramaximal concentration colour-coded for each conjugate which illustrates a striking degree of overlap. Although there is no conspicuous change in footprinting patterns as the number of pyrroles units in each conjugate increases, there are changes in two other features, namely, the apparent binding affinity and the width of the footprinted site. […]

[3] = system: NF-Y binding at ICB2 of Topoisomerase IIα promoter; experiment: NF-Y gel shift assay (EMSA) at ICB2
[4] = system: 170 bp sequence of the human Topo-IIa promoter; experiment: DNase I footprinting on Topo-IIa promoter (ICB1, ICB2 sites); type: binding
Procedure: In a similar manner to Example 4, the affinity and sequence selectivity of certain compounds of examples 1 and 2 was evaluated by standard DNA footprinting on a 170 bp sequence of the human Topo-IIa promoter, in accordance with the technique described in Martin, C., et al.
Selected results are shown in FIG. 9, wherein the concentrations of the lanes were 0, 1.6, 8, 40, 200, 1000, 5000 and 25000 nM in each case.
The footprinting results allowed the identification of compounds that could potentially disrupt transcription factor binding at the ICB1 and ICB2 sites. […] These compounds are detailed below in table 3, showing the concentrations (μM) at which the PBD-heterocycle conjugates bind at ICB1 and ICB2.

[5] = system: NF-Y binding at ICB1 of Topoisomerase IIα promoter; experiment: NF-Y gel shift assay (EMSA) at ICB1
[6] = read-out: DNase IC50 (apparent binding affinity; 50% inhibition of DNase I-mediated cleavage), estimated by eye, site 5′-62CAATACACA70-3′

| Compound | Induced ΔTm after incubation 0 hours (calf thymus DNA (CT-DNA)) | Induced ΔTm after incubation 4 hours (calf thymus DNA (CT-DNA)) | Induced ΔTm after incubation 18 hours (calf thymus DNA (CT-DNA)) | IC50 ([1]; Homo sapiens) | IC50 ([2]; estimated by eye from footprint gel, read-out: DNase IC50 (apparent binding affinity)) | IC50 [1] | IC50 [2, 6] | Induced ΔTm after incubation 72 hours (calf thymus DNA (CT-DNA); pH 7.00, 72 hours) | Lowest concentration at which NF-Y binding inhibition was observed [3] | Concentration at which DNA binding is observed, ICB1 ([4]; ICB1 site) | Concentration at which DNA binding is observed, ICB2 ([4]; ICB2 site) | Lowest concentration at which NF-Y binding inhibition was observed [5] |
| --- | --- | --- | --- | --- | --- | --- | --- | --- | --- | --- | --- | --- |
| COC(=O)c1cc(NC(=O)CCCOc2cc3c(cc2OC)C(=O)N2CCC[C@H]2C=N3)cn1C [Compound 21, (11aS) Methyl 4-[4-(7-methoxy-5-oxo-2,3,5,11a-tetrahydro-5H-pyrrolo[2,1-c][1,4]benzodiazepine-8-yloxy)-butyrylamino]-1-methyl-1H-pyrrole-2-carboxylate] | 6.5 °C | 7.9 °C | 8.1 °C | 51 nM | ≥ 10000 nM |  |  |  |  |  |  |  |
| COC(=O)c1cc(NC(=O)c2cc(NC(=O)c3cc(NC(=O)CCCOc4cc5c(cc4OC)C(=O)N4CCC[C@H]4C=N5)cn3C)cn2C)cn1C [Compound 25, (11aS) Methyl 4-{[4-({4-[4-(7-Methoxy-6-oxo-2,3,5,11a-tetrahydro-5H-pyrrolo[2,1-c][1,4]benzodiazepine-8-yloxy)-butyrylamino]-1-methyl-1H-pyrrole-2-carbonyl]-amino)-1-methyl-1H-pyrrole-2-carbonyl]-amino}-1-methyl-1H-pyrrole-2-carboxylate] | 17.3 °C | 19.6 °C | 21.2 °C |  |  | 41 nM | 30 to 100 nM |  |  |  |  |  |
| COC(=O)c1cc(NC(=O)c2cc(NC(=O)c3cc(NC(=O)c4cc(NC(=O)CCCOc5cc6c(cc5OC)C(=O)N5CCC[C@H]5C=N6)cn4C)cn3C)cn2C)cn1C [Compound 27, (11aS) Methyl 4-[(4-{[4-({4-[4-(7-Methoxy-5-oxo-2,3,5,11a-tetrahydro-5H-pyrrolo[2,1-c][1,4]benzodiazepine-8-yloxy)-butyrylamino]-1-methyl-1H-pyrrole-2-carbonyl]-amino)-1-methyl-1H-pyrrole-2-carbonyl]-amino}-1-methyl-1H-pyrrole-2-carbonyl)-amino]-1-methyl-1H-pyrrole-2-carboxylate] | 16.0 °C | 18.5 °C | 19.0^y ° C. |  |  | 47 nM | ~30 nM |  |  |  |  |  |
| COC(=O)c1cc(NC(=O)c2cc(NC(=O)c3cc(NC(=O)c4cc(NC(=O)c5cc(NC(=O)CCCOc6cc7c(cc6OC)C(=O)N6CCC[C@H]6C=N7)cn5C)cn4C)cn3C)cn2C)cn1C [Compound 29, (11aS) Methyl 4-({4-[(4-{[4-({4-[4-(7-Methoxy-5-oxo-2,3,5,11a-tetrahydro-5H-pyrrolo[2,1-c][1,4]benzodiazepine-8-yloxy)-butyrylamino]-1-methyl-1H-pyrrole-2-carbonyl]-amino)-1-methyl-1H-pyrrole-2-carbonyl]-amino}-1-methyl-1H-pyrrole-2-carbonyl)-amino]-1-methyl-1H-pyrrole-2-carbonyl}-amino)-1-methyl-1H-pyrrole-2-carboxylate] | 15.1 °C | 15.9 °C | 17.1 °C |  |  | 83 nM |  |  |  |  |  |  |
| COC(=O)c1cc(NC(=O)c2cc(NC(=O)c3nc(NC(=O)CCCOc4cc5c(cc4OC)C(=O)N4CCC[C@H]4C=N5)cn3C)cn2C)cn1C [Compound 67] | 19.1 °C | 19.8 °C | 21.1 °C |  |  |  |  | 21.6 °C | 5 µM | 5 µM | 1 µM | 50 µM |
